Patent publication US4863713A, “Method and system for administering therapeutic and diagnostic agents” (priority 1986, dated 1989)

Columns and labels:
[1] = Whole body retention of radionuclide 24 hours after antibody/chelate complex (Table 1); format: in vivo; conditions: WC3A11 antibody; vs less tightly bound In-TBEDTA
[2] = tested on: KHJJ adenocarcinoma tumor; test: Tumor imaging and biodistribution after WC3A11, clearing agent and radiolabelled chelate (Example 6); format: in vivo, Balb/c mice
Experimental: Three hours later, a whole-body scan, using computer digitation of the whole-body image, was performed on the animals.

[3] = Whole body retention of antibody complexes of EDTA-111In or 57Co compounds (Example 4); format: in vivo, Balb/C mice; conditions: WC3A11 complex
Experimental: EDTA and BABE-EDTA were complexed with ^111 In and bleomycin, with ^57 Co, as in Example 1. […] BLEDTA-IV-^111 In, a bleomycin-EDTA-In compound containing EDTA linked to bleomycin through a dithiobutane spacer, was prepared as described in co-owned patent application for "Bleomycin Conjugates and Methods". TBEDTA-^111 In was prepared as in Example 1. WC3A11 antibody complexes were formed by incubating the WC3A11 antibody from Example 2 with a selected ^111 In cpm amount of (a) ^111 -In-EDTA, (b) ^111 In-BABE-EDTA, (c) BLEDTA-II-^111 In, (d) BL-^57 Co. (e) BLEDTA-IV-^111 In, or (f) TBEDTA-^111 In.
Each of the antibody/EDTA-^111 In or ^57 Co complexes (a)-(f) was subjected intravenously to each of three Balb/C mice, in an amount between about 200-800 μg per animal. Twenty-four hours after the injection, the total body radioactivity of ^111 In was measured in a dual-probe scintillation counter. The values were averaged for the three animals. […] By contrast, the antibody complexes of compounds (e) and (f) (both of which contain a thiobutane-BABE-EDTA moiety) were retained to more than 30% after 24 hours, at an initial dose of about 180 μg antibody, and to greater than about 70% of an initial antibody dose of about 800 μg antibody.

avidin = avidin (Gallus gallus, UniProt P02701); test: Binding of biotinylated chelate to avidin
Text: To illustrate a derivatization reaction used in preparing a epitopic compound, the above bifunctional chelates can be coupled to a biotin moiety, to produce of epitopic biotin chelate capable of specific, high-affinity binding to avidin. In one coupling method, a bifunctional chelate having a free-end amine is reacted with an N-hydroxysuccinamide (NHS) ester of biotin, to link the biotin to the chelate amine through an amide linkage. The chelate amine may be formed from BABE-EDTA, for example, by amination in concentrated aqueous ammonium, and the NHS biotin ester is commercially available. […] Other active agents can be biotinylated or derivatized with carbohydrate or haptenic molecules in a similar manner.

Chain of avidin (P02701 25-152): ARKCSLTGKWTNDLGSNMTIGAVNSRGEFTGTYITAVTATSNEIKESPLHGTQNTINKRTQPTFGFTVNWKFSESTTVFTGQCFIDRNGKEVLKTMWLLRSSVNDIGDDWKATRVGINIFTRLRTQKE

In the case of `O=C([O-])CN(CC(=O)[O-])CC(Cc1ccc(NC(=O)CSCCCCS)cc1)N(CC(=O)[O-])CC(=O)[O-].[Co+3]` (stereo not shown) [Co-TBEDTA], the “whole body retention (in words)” value [1] is reported as “substantially greater retention”, the “whole-body scan, label localization at 3 hours (in words)” value ([2]; FIG. 3A, 3 hours) is reported as “localization of the label in the kidneys (K), bladder (B) and flank tumor (T)” and the “whole-body scan at 24 hours (in words)” value ([2]; FIG. 3B, 24 hours) is reported as “absence of label in the bladder. Good tumor imaging with low background is still achieved”. The “tumor uptake and tumor-to-organ ratios (in words)” value ([2]; Table 3, 3 hours) was “high tumor-to-organ ratios for blood, and other internal organs”.
With `O=C([O-])CN(CC(=O)[O-])CC(Cc1ccc(NC(=O)CSCCCCS)cc1)N(CC(=O)[O-])CC(=O)[O-].[111In+3]` (stereo not shown) [TBEDTA-^111 In] the “retained after 24 hours, about 180 μg antibody” value ([3]; initial dose about 180 μg antibody) was “more than 30%” and the “retained after 24 hours, about 800 μg antibody” value ([3]; initial dose about 800 μg antibody) was “greater than 70%”.
With `O=C(O)CN(CC(=O)O)CC(Cc1ccc(NC(=O)CNC(=O)CCCC[C@@H]2SC[C@@H]3NC(=O)N[C@@H]32)cc1)N(CC(=O)O)CC(=O)O` (stereo partly shown) [biotinylated glycineamidobenzyl EDTA] the “binding to avidin (in words)” value (avidin) was “bind with high affinity to avidin”.
